{
  "source": "patent US8337835B2",
  "about": "“Use of an endogenous ligand for peroxisome proliferator activated receptor alpha to treat liver disorders” (priority 2009, dated 2012)",
  "molecular_target": "T1, PPARα (Mus musculus, UniProt P23204)",
  "T1 construct": "expressed in transfected cells; host or cells: liver of chow- or ZFD-fed WT mice on a PPARα null background, infected with AdFLAG-PPARα adenovirus",
  "T1 sequence (P23204 1-468)": "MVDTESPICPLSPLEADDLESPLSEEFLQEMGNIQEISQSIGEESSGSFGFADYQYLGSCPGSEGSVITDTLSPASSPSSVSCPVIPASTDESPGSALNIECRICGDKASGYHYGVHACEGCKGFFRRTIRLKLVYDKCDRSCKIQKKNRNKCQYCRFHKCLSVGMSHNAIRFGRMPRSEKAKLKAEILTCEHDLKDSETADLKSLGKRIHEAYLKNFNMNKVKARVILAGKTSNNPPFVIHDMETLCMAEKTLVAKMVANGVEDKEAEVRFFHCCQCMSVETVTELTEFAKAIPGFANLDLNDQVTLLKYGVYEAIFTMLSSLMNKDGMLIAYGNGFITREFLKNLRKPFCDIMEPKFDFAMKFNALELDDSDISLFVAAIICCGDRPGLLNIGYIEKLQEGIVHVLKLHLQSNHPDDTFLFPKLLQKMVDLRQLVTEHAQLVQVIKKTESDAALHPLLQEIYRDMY",
  "assay": "In vivo competitive inhibition: displacement of 16:0/18:1-GPC (m/z 766) from FLAG-tagged PPARα, ESI/MS",
  "conditions": "50 μg/g intraperitoneal; chow and zero fat diet fed WT mice on PPARα null background with AdFLAG-PPARα; 0-60 min",
  "procedure": "Freshly harvested livers (˜100 mg) were gently homogenized in ice-cold non-detergent hypotonic buffer (10 mM HEPES, pH 7.9, 1.5 mM MgCl2, 10 mM KCl, 100 mM DTT, protease and phosphatase inhibitor cocktail). After an additional 10 min incubation in the hypotonic buffer, the homogenate was centrifuged at 8000×g at 4° C. for 20 min. The pellet was homogenized in ice-cold extraction buffer (10 mM HEPES, pH 7.9, 1.5 mM MgCl2, 0.21 M NaCl, 0.2 mM EDTA, 25% (v/v) glycerol, 100 mM DTT, protease and phosphatase inhibitor cocktail), placed on a rotating shaker at 4° C. for 1 h, then centrifuged at 18,000×g for 10 min. […]\nThe in vivo displacement of the endogenous PPARα ligand 16:0/18:1-GPC by the PPARα agonist Wy14,643 was assessed by electrospray ionization mass spectrometry (ESI/MS) Analysis. […] Wy14,643 in chow fed WT mice on a PPARα null background injected with AdFLAG-PPARα adenovirus are shown in FIGS. 4A-D. Similarly, representative ESI/MS scans of GPC species at different time intervals following an intraperitoneal injection of 50 μg/g Wy14,643 in ZFD fed mice are shown in FIGS. 4E-H. Insets in FIGS. 4A-H depict the ion at m/z 766 (16:0/18:1-GPC) that is time-dependently competed away with Wy14,643 while quantification of the relative abundance of the peak abundance of m/z 766 ion in response to Wy14,643 is shown in FIG. 4I. […]",
  "data": [
    {"smiles": "Cc1cccc(Nc2cc(Cl)nc(SCC(=O)O)n2)c1C", "note": "[Wy14,643, 4-Chloro-6-(2,3-xylidino)-2-pyrimidinylthioacetic acid]", "values": [
      {"measurement": "displacement of 16:0/18:1-GPC (m/z 766) from PPARα", "result": "displaced from PPARα within minutes"}
    ]}
  ]
}
